Source: patent US8158656B2, “2-indolinone derivatives as multi-target protein kinase inhibitors and histone deacetylase inhibitors” (Shenzhen Chipscreen Biosciences Ltd., priority 2008, dated 2012)

Experiments:
[1] = target: T1, Flt3 (Homo sapiens, UniProt P36888); assay: Flt3 kinase ELISA bioassay; type: biochemical; conditions: ELISA kinase assay, 200 μM ATP
T1 construct: purchased Cell Signaling
T1 sequence (P36888 27-993): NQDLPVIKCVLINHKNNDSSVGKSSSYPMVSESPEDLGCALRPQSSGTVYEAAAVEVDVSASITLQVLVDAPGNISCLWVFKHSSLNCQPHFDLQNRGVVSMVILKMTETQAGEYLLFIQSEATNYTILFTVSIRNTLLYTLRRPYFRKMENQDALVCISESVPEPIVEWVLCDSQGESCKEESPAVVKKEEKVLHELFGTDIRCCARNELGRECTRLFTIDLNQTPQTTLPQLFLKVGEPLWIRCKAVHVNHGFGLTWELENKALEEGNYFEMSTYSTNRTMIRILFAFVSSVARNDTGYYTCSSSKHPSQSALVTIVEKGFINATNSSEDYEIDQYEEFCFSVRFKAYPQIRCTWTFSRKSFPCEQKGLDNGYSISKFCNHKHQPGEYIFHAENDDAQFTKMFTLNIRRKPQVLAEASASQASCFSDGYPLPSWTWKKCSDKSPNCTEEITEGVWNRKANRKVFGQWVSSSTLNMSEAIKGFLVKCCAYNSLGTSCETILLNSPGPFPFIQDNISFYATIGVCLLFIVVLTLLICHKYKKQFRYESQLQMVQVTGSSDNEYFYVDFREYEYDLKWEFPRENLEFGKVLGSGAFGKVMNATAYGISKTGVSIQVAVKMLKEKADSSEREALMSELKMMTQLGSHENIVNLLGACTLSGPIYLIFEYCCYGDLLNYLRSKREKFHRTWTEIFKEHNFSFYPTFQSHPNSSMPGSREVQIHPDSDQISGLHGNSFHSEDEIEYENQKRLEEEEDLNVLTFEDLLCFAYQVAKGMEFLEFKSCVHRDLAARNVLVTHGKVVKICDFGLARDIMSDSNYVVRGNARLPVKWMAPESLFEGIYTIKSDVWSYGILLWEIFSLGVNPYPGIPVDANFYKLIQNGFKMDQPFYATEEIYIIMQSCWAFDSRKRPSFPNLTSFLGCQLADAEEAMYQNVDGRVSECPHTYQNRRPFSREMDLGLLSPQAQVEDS
Description: This assay is used to measure in vitro kinase activity of Flt3 in an ELISA assay.
• 1. Streptavidin coated, 96-well, white plate • 2. Phospho-Tyrosine Monoclonal Antibody (P-Tyr-100) (Cell Signaling) • 3. HRP-labeled anti-mouse IgG (Upstate) • 4. HTScan™ Tyrosine Kinase Buffer (4×) • 5. DTT (1000×. 1.25 M) • 6. ATP (10 mM) • 7. KDR (Tyr996) Biotinylated Peptide Substrate (Cell Signaling) • 8. Flt3 Kinase (recombinant, human) (Cell Signaling) • 9. Wash Buffer: 1× PBS, 0.05% Tween-20 (PBS/T) • 10. Bovine Serum Albumin (BSA) • 11. Stop Buffer: 50 mM EDTA pH 8 • 12. Enhanced chemiluminescence (ECL) (Amersham) Procedure for performing the assay in 96-well plate: • 1. Add 10 μl 10 mM ATP to 1.25 ml 6 μM substrate peptide. Dilute the mixture with dH20 to 2.5 ml to make 2× ATP/substrate cocktail ([ATP]=[…], [substrate]=3 μm). • 2. Immediately transfer enzyme from −80° C. to ice. Allow enzyme to thaw on ice. • 3. Microcentrifuge briefly at 4° C. to bring liquid to the bottom of the vial. Return immediately to ice. • 4. Add 10 μl of DTT (1.25 M) to 2.5 ml of 4× HTScan™ Tyrosine Kinase Buffer (240 mM HEPES pH 7.5, 20 mM MgCl2, 20 mM MnCl2, 12 μM Na3VO4) to make DTT/Kinase buffer. • 5. Transfer 1.25 ml of DTT/Kinase buffer to enzyme tube to make 4× reaction cocktail ([enzyme]=4 ng/μL in 4× reaction cocktail). • 6. Incubate 12.5 μl of the 4× reaction cocktail with 12.5 μl/well of prediluted compound of interest (usually around 10 μM) for 5 minutes at room temperature. • 7. Add 25 μl of 2× ATP/substrate cocktail to 25 μl/well preincubated reaction cocktail/compound. Final Assay Conditions for a 50 μl Reaction: • 60 mM HEPES pH 7.5 • 5 mM MgCl2 • 5 mM MnCl2 • 3 μM Na3VO4 • 1.25 mM DTT • […] • 1.5 μM peptide • 10 units Flt3 Kinase • 8. Incubate reaction plate at room temperature for 30 minutes. • 9. Add 50 μl/well Stop Buffer (50 mM EDTA, pH 8) to stop the reaction. • 10. Transfer 50 μl of each reaction and 50 μl dH2O/well to a 96-well streptavidincoated plate and incubate at room temperature for 60 minutes. • 11. Wash three times with 200 μl/well PBS/T • 12. Dilute primary antibody, Phospho-Tyrosine Monoclonal Antibody (P-Tyr-100), 1:1000 in PBS/T with 1% BSA. Add 100 μl/well of primary antibody. • 13. Incubate at room temperature for 60 minutes. • 14. Wash three times with 200 μl/well PBS/T • 15. Dilute HRP labeled anti-mouse IgG 1:500 in PBS/T with 1% BSA. Add 100 μl/well diluted antibody. • 16. Incubate at room temperature for 30 minutes. • 17. Wash five times with 200 μl/well PBS/T. • 18. Add 100 μl/well ECL Solution. • 19. Detect luminescence with appropriate Plate Reader.

[2] = test system: Mo7e cells (SCF dependent); assay: c-Kit ligand (SCF) dependent cell proliferation; type: cell-based; conditions: SCF 50 ng/ml, 72 hours, MTS
Description: SCF dependent cell proliferation:
Mo7e cells (SCF dependent) were plated into 96-well plates at 15000 per well and incubated in 1640 medium with 10% FBS and SCF (50 ng/ml) for 24 hours. Compounds were added and incubated for 72 hours at 37° C. in CO2 incubator. The effects on proliferation were determined by addition of MTS reagent (Promega) according to the instruction, incubation for 2 hours at 37° C. in CO2 incubator, and record the absorbance at 490 nm using an ELISA plate reader.

[3] = test system: HCT-8; assay: Tumor cell proliferation (MTS), HCT-8; type: cell-based; conditions: Homo sapiens, HCT-8, 72 hours
Description: (§1) Measurement of in vivo cell proliferation:
(§2) Tumor cells were trypsinized and plated into 96-well plates at 3,000 per well and incubated in complete medium with 10% FBS for 24 hours. Compounds were added over a final concentration range of 100 μmol/L to 100 nmol/L in 0.1% DMSO and incubated for 72 hours in complete medium. The effects on proliferation were determined by addition of MTS reagent (Promega) according to the instruction, incubation for 2 hours at 37° C. in CO2 incubator, and record the absorbance at 490 nm using an ELISA plate reader.

[4] = test system: A549; assay: Tumor cell proliferation (MTS), A549; type: cell-based; conditions: Homo sapiens, A549, 72 hours
Description: as §1, §2

[5] = test system: Jurkat; assay: Tumor cell proliferation (MTS), Jurkat; type: cell-based; conditions: Homo sapiens, 72 hours
Description: as §1, §2

| Structure (SMILES) | IC50 [1] [nM] | GI50 [2] [nM] | GI50 [3] [µM] | GI50 [4] [µM] | GI50 [5] [µM] |
| --- | --- | --- | --- | --- | --- |
| Cc1[nH]c(/C=N/N=C2\C(=O)Nc3ccc(F)cc32)c(C)c1C(=O)NCCCCNc1ccc(C(=O)Nc2ccc(F)cc2N)cn1 [Example 20, N-(2-amino-4-fluorophenyl)-6-(4-(2-(((5-fluoro-2-oxoindolin-3-ylidene)-hydrazono)methyl)-3,5-dimethyl-1H-pyrrole-4-carboxamido)butylamino)nicotinamide] | > 1000 | > 1000 | > 60 | > 60 | > 60 |
| Cc1[nH]c(/C=N/N=C2\C(=O)Nc3ccc(F)cc32)c(C)c1C(=O)NCCNc1ccc(C(=O)Nc2ccc(F)cc2N)cn1 [Example 14, N-(2-amino-4-fluorophenyl)-6-(2-(2-(((5-fluoro-2-oxoindolin-3-ylidene)-hydrazono)methyl)-3,5-dimethyl-1H-pyrrole-4-carboxamido)ethylamino)nicotinamide] | 432 | > 1000 | > 60 | > 60 | > 60 |
| Cc1[nH]c(/C=N/N=C2\C(=O)Nc3ccc(F)cc32)c(C)c1C(=O)NCCCNc1ccc(C(=O)Nc2ccccc2N)cn1 [Example 7, N-(2-aminophenyl)-6-(3-(2-(((5-fluoro-2-oxoindolin-3-ylidene)hydrazono)-methyl)-3,5-dimethyl-1H-pyrrole-4-carboxamido)propylamino)nicotinamide] | 451 | > 1000 | > 60 | > 60 | > 60 |
| Cc1[nH]c(/C=N/N=C2\C(=O)Nc3ccc(F)cc32)c(C)c1C(=O)NCCCNc1ccc(C(=O)Nc2ccc(F)cc2N)cn1 [Example 17, N-(2-amino-4-fluorophenyl)-6-(3-(2-(((5-fluoro-2-oxoindolin-3-ylidene)-hydrazono)methyl)-3,5-dimethyl-1H-pyrrole-4-carboxamido)propylamino)nicotinamide] | > 1000 | > 1000 | > 60 | > 60 | > 60 |
| Cc1[nH]c(/C=C2\C(=O)Nc3ccc(F)cc32)c(C)c1C(=O)NCCNc1ccc(C(=O)Nc2ccccc2N)cn1 [Example 3, (Z)-N-(2-aminophenyl)-6-(2-(2-((5-fluoro-2-oxoindolin-3-ylidene)methyl)-3,5-dimethyl-1H-pyrrole-4-carboxamido)ethylamino)nicotinamide] | 76 | 126 | > 60 | > 60 | > 60 |
| Cc1[nH]c(/C=C2\C(=O)Nc3ccc(F)cc32)c(C)c1C(=O)NCCCCNc1ccc(C(=O)Nc2ccccc2N)cn1 [Example 9, (Z)-N-(2-aminophenyl)-6-(4-(2-((5-fluoro-2-oxoindolin-3-ylidene)methyl)-3,5-dimethyl-1H-pyrrole-4-carboxamido)butylamino)nicotinamide] | 25 | 32 | > 60 | > 60 | > 60 |
| Cc1[nH]c(/C=C2\C(=O)Nc3ccc(F)cc32)c(C)c1C(=O)NCCCCNc1ccc(C(=O)Nc2ccc(F)cc2N)cn1 [Example 19, (Z)-N-(2-amino-4-fluorophenyl)-6-(4-(2-((5-fluoro-2-oxoindolin-3-ylidene)-methyl)-3,5-dimethyl-1H-pyrrole-4-carboxamido)butylamino)nicotinamide] | 21 | 42 | > 60 | > 60 | > 60 |
| Cc1[nH]c(/C=C2\C(=O)Nc3ccc(F)cc32)c(C)c1C(=O)NCCCNc1ccc(C(=O)Nc2ccc(F)cc2N)cn1 [Example 16, (Z)-N-(2-amino-4-fluorophenyl)-6-(3-(2-((5-fluoro-2-oxoindolin-3-ylidene)-methyl)-3,5-dimethyl-1H-pyrrole-4-carboxamido)propylamino)nicotinamide] | 623 | 105 | > 60 | > 60 | > 60 |
| Cc1[nH]c(/C=C2\C(=O)Nc3ccc(F)cc32)c(C)c1C(=O)NCCCNc1ccc(C(=O)Nc2ccccc2N)cn1 [Example 6, (Z)-N-(2-aminophenyl)-6-(3-(2-((5-fluoro-2-oxoindolin-3-ylidene)methyl)-3,5-dimethyl-1H-pyrrole-4-carboxamido)propylamino)nicotinamide] | 132 | 46 | > 60 | > 60 | > 60 |
| Cc1[nH]c(/C=N/N=C2\C(=O)Nc3ccc(F)cc32)c(C)c1C(=O)NCCNc1ccc(C(=O)Nc2ccccc2N)cn1 [Example 4, N-(2-aminophenyl)-6-(2-(2-(((5-fluoro-2-oxoindolin-3-ylidene)hydrazono)-methyl)-3,5-dimethyl-1H-pyrrole-4-carboxamido)ethylamino)nicotinamide] | 870 | > 1000 | > 60 | > 60 | > 60 |
| Cc1[nH]c(/C=C2\C(=O)Nc3ccc(F)cc32)c(C)c1C(=O)NCCNc1ccc(C(=O)Nc2ccc(F)cc2N)cn1 [Example 13, (Z)-N-(2-amino-4-fluorophenyl)-6-(2-(2-((5-fluoro-2-oxoindolin-3-ylidene)-methyl)-3,5-dimethyl-1H-pyrrole-4-carboxamido)ethylamino)nicotinamide] | 63 | 151 | > 60 | > 60 | > 60 |
